Structures can show the parent of a compound that is named as a salt.

The text below walks through data of EP4342468A1, “TOLEBRUTINIB SALT AND CRYSTAL FORM THEREOF, PREPARATION METHOD THEREFOR, PHARMACEUTICAL COMPOSITION THEREOF, AND USE THEREOF” (Hangzhou Solipharma Co., Ltd., priority 2021, dated 2022).

Format in all cases: physicochemical
A short description of data set [1]: Stability study of the solid forms under long-term, accelerated, light and oxidation conditions (HPLC and XRPD). The following applies: for Purity after / Purity after placing: HPLC; for Purity after: initial purity 99.50%; for Sample after placing / crystal form after storage: XRPD; for Purity after placing: initial purity 99.46%. As to the method:
In this application, X-ray powder diffraction (XRPD) data were collected using a BrukerD8 Advance diffractometer; parameters are as follows: Cu radiation; wavelength: 1.54Å; Current voltage: 40KV, 40mA; Scan range: 3 to 40°2θ.
In this application, the HPLC parameters for chemical stability and solubility are as follows:
An appropriate amount of Form 2 of tolebrutinib monohydrochloride prepared in example 2-1 of this application was placed under long-term (25°C/60% RH/open), accelerated (40°C/75% RH/open), light (25°C/4500lx/closed), and oxidation (in a urea peroxide atmosphere) conditions. Table 1 Stability of Form 2 of tolebrutinib monohydrochloride
An appropriate amount of tolebrutinib monohydrochloride Form1 sample prepared in Example 3-1 of this application was taken and placed under long-term (25°C/60% RH/open) and accelerated (40°C/75% RH/open) conditions, HPLC and XRPD testing were regularly conducted. Table 2 Stability of Form 1 of tolebrutinib monohydrochloride

A short description of data set [2]: Solubility in water (supersaturated solution, content by HPLC). The note with it: for Solubility: 2 hours, monohydrochloride. The text has this:
In this application, the HPLC parameters for chemical stability and solubility are as follows: […]

The nature of data set [3]: Dynamic vapor sorption (DVS) hygroscopicity. As for the experimental part:
In this application, dynamic moisture adsorption analysis (DVS) data and isothermal adsorption analysis data were obtained using a TA Instruments Q5000 TGA; parameters are as follows: temperature: 25°C; relative humidity range: 0%RH-80%RH; dm/dt =0.001%/min; equilibration time: 90min; gas: N2; sample pan: platinum pan.

Data set [4] can be described thus: Compressibility study (tablet compression, hardness, tensile strength). The note with it: for hardness: radial breaking force, tablet hardness tester, main pressure 1.8 KN; for diameters / thicknesses: tablet, Φ7.5mm punch, mean main pressure 1.8 KN. As to the method:
The tablet compression was conducted using a Tianxiang rotary tablet press. A circular punch with a diameter of 7.5 mm (Φ7.5mm), a filling depth of 17.9 mm and a mean main pressure of 1.8 KN were used. The tablets' radial breaking force (hardness, H) was measured using a tablet hardness tester. The tablets' diameter (D) and thickness (L) were measured using a vernier caliper. The tensile strength (T) of the powder was calculated using the formula T=2H/πDL*9.8. The results are shown in Table 5: Table 5 Compressibility of Form 2 of tolebrutinib monohydrochloride and Form 1 of tolebrutinib monohydrochloride

A short description of data set [5]: Stability of the crystal form in tablets (XRPD before and after storage). The note with it: 25°C/60% RH. As for the experimental part:
(§1) Following the formulation in Table 6, API, lactose hydrate, polyvinylpyrrolidone, hydroxypropyl cellulose, microcrystalline cellulose and magnesium stearate were mixed and compressed to obtain a tablet core. Subsequently, the tablet cores were coated with a solution/suspension for film coating. Table 6 Tablet formulations
The tablets containg Form 2 of tolebrutinib monohydrochloride Form 2 tablets and Form 1 of tolebrutinib monohydrochloride were placed at 25°C/60% RH for 14 days, respectively. XRPD tests were performed before and after storage. The XRPD comparison plots before and after storage are shown in FIG. 26 and FIG. 27, respectively.

Data set [6] can be described thus: Crystal form before and after the tableting process (XRPD).
Description: as §1

The nature of data set [7]: Stability study of the solid forms under long-term, accelerated, light and oxidation conditions (HPLC and XRPD). The note with it: long-term (25°C/60%RH) and accelerated (40°C/75%RH) conditions for 14 days; XRPD.
[8] abbreviates: light (25°C/4500lx/closed) and oxidation (in a urea peroxide atmosphere) conditions.
The mark [9] stands for this setting: light, 25°C/45001x/closed, 14 days.
[10] abbreviates: long-term (25°C/60%RH) and accelerated (40°C/75%RH) conditions for 14 days.
Setting [11] is: oxidation, in a urea peroxide atmosphere, 14 days.
The mark [12] stands for this setting: listed as Form 2 of monohydrochloride.
The mark [13] stands for this setting: listed as Form 1 of monohydrochloride.

Usually solubility stands for the dissolved amount per volume that the medium holds. A low value points to little dissolved substance. As to `C=CC(=O)N1CCC[C@@H](n2c(=O)n(-c3ccc(Oc4ccccc4)cc3)c3c(N)nccc32)C1` [Form 2 of tolebrutinib monohydrochloride, tolebrutinib monohydrochloride], the Purity after was 99.26% in data set [1] (25°C/60%RH/open, 14 days); 99.30% in data set [1] (40°C/75%RH/open, 14 days); 99.35% in data set [1] (setting [9]); 99.07% in data set [1] (setting [11]). Further, the Sample after placing result in data set [1] (25°C/60%RH/open, 14 days) is recorded as “Form 2 of monohydrochloride”; in data set [1] (40°C/75%RH/open, 14 days), “Form 2 of monohydrochloride”; in data set [1] (setting [9]), “Form 2 of monohydrochloride”; in data set [1] (setting [11]) it was “Form 2 of monohydrochloride”. Further, the time remaining stable entry is “at least 14 days” in data set [1] (setting [8]); “at least 14 days” in data set [1] (long-term (25°C/60% RH/open) and accelerated (40°C/75% RH/open) conditions, listed as Form 2 of monohydrochloride, monohydrochloride). The “crystal form after storage” value in data set [1] (setting [10]) was “remains unchanged”. In data set [2] (water, thermodynamic from solid), this compound came in with a solubility at 2 hours of around 7000 µg/mL. For the same compound, the “crystal form before and after DVS” value in data set [3] (XRPD before and after DVS) is “remained unchanged”. Further, the tensile strength in data set [4] (calculated with T=2H/πDL*9.8, listed as Form 2 of monohydrochloride) is 1.0 MPa. This compound also had a hardness in data set [4] (setting [12]) of 5.33 kg. In data set [4] (setting [12]), this compound displayed a diameters of 7.50 mm. The same compound displayed a thicknesses in data set [4] (setting [12]) of 4.23 mm. In data set [5], the “time crystal form remains stable in tablets / formulation with excipients” value is “at least 14 days”. For the same compound, the “crystal form before and after the tableting process” value in data set [6] is on record as “remained unchanged”.
Broadly, the Solubility is how much of the substance goes into solution per volume. With `C=CC(=O)N1CCC[C@@H](n2c(=O)n(-c3ccc(Oc4ccccc4)cc3)c3c(N)nccc32)C1` [Form 1 of tolebrutinib monohydrochloride, tolebrutinib monohydrochloride], in data set [1] (25°C/60%RH/open, 10 months), the Purity after placing is given as 99.37% and the Sample after placing entry is “Form 1 of monohydrochloride”. Further, in data set [1] (40°C/75%RH/open, 10 months), the Purity after placing turned out to be 98.63% and the Sample after placing result is “Form 1 of monohydrochloride”. For the same compound, the time remaining stable entry in data set [1] (setting [8]) is reported as “at least 14 days”. In addition, the time remaining stable result in data set [1] (long-term (25°C/60% RH/open) and accelerated (40°C/75% RH/open) conditions, monohydrochloride) is on record as “at least 10 months”. Also, the “crystal form after storage” value in data set [1] (long-term and accelerated conditions for 10 months) is on record as “remains unchanged”. Moreover, the Solubility entry in data set [2] (listed as Form 1 of the monohydrochloride salt of tolebrutinib) was “approximately 8.3 mg/mL”. The compound also returned a Solubility in data set [2] of 8260 µg/mL. Further, in data set [3] (between 20% RH to 80% RH at 25 °C), the DVS weight change result is reported as “about 1.2%”. For the same compound, in data set [3] (humidity range of 0%RH to 80%RH), the “weight gain (hygroscopicity)” value is on record as around 0.9%. For the same compound, the tensile strength in data set [4] (calculated with T=2H/πDL*9.8, listed as Form 1 of monohydrochloride) was 1.2 MPa. Besides, in data set [4] (setting [13]), the hardness was 6.16 kg, the diameters is reported as 7.49 mm and the thicknesses came out at 4.19 mm. For the same compound, the “time crystal form remains stable in tablets / formulation with excipients” value in data set [5] is given as “at least 14 days”. Further, in data set [6], the “crystal form before and after the tableting process” value is “remained unchanged”.
Take `C=CC(=O)N1CCCC(n2c(=O)n(-c3ccc(Oc4ccccc4)cc3)c3c(N)nccc32)C1.O=C(O)C=CC(=O)O` (centres unmarked) [maleate Form 1, tolebrutinib maleate]: the “crystal form after storage” value in data set [1] (setting [10]) is “remained the same crystalline form”; in data set [7], “remains unchanged”.
